Results as given in patent US20100298141A1, “SUBSTITUTED PYRIDINE N-OXIDE HERBICIDES” (E. I. DU PONT DE NEMOURS AND COMPANY, priority 2007, published 2010).

Key:
giant foxtail [1] = experiment: Test A pre-/postemergence greenhouse test; format: in vivo, Setaria faberi; conditions: for Foxtail, Giant plant response rating: 0 to 100 scale; for Plant response rating, Foxtail, Giant: 0 to 100 scale where 0 is no effect and 100 is complete control
In short: (§1)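 Visual injury ratings, made relative to untreated controls roughly ten days after treatment, cover both preemergence and postemergence application. Compounds in a surfactant-containing non-phytotoxic solvent were sprayed onto the soil surface after sowing and, simultaneously, onto young plants at the one- to two-leaf stage.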

Goosegrass = experiment: Test C pre-/postemergence test; format: in vivo, Eleusin indica
In short: (§2)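 Test chemicals were formulated with surfactant in a non-phytotoxic solvent and sprayed both on freshly planted seeds (preemergence) and on 1- to 4-leaf plants of 2–18 cm (postemergence). Flooded-paddy pots received compound directly into 3 cm of standing water, maintained for the test.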

velvetleaf [2] = experiment: Test A pre-/postemergence greenhouse test; format: in vivo, Abutilon theophrasti; conditions: for Velvetleaf plant response rating: 0 to 100 scale; for Plant response rating, Velvetleaf: 0 to 100 scale where 0 is no effect and 100 is complete control
In short: as §1

common ragweed = experiment: Test C pre-/postemergence test; format: in vivo, Ambrosia elation
In short: as §2

giant foxtail [3] = experiment: Test C pre-/postemergence test; format: in vivo, Setaria faberii
In short: as §2

velvetleaf [4] = experiment: Test C pre-/postemergence test; format: in vivo, Abutilon theophrasti
In short: as §2

eastern black nightshade = experiment: Test C pre-/postemergence test; format: in vivo, Solanum ptycanthum
In short: as §2

rice = experiment: Test C flooded paddy test; format: in vivo, Oryza sativa; conditions: Flood
In short: (§3)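 Flooded 3 cm over soil; compound into paddy water; depth kept constant. Greenhouse 13–15 d.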

corn = experiment: Test A pre-/postemergence greenhouse test; format: in vivo, Zea mays; conditions: for Corn plant response rating: 0 to 100 scale; for Plant response rating, Corn: 0 to 100 scale where 0 is no effect and 100 is complete control
In short: as §1

lambsquarters = experiment: Test C pre-/postemergence test; format: in vivo, Chenopodium album
In short: as §2

barnyardgrass = experiment: Test C flooded paddy test; format: in vivo, Echinochloa crus-galli; conditions: Flood
In short: as §3

bermudagrass = experiment: Test C pre-/postemergence test; format: in vivo, Cynodon dactylon
In short: as §2

Surinam grass = experiment: Test C pre-/postemergence test; format: in vivo, Brachiaria decumbens
In short: as §2

redroot pigweed = experiment: Test A pre-/postemergence greenhouse test; format: in vivo, Amaranthus retroflexus; conditions: for Pigweed plant response rating: 0 to 100 scale; for Plant response rating, Pigweed: 0 to 100 scale where 0 is no effect and 100 is complete control
In short: as §1

duck salad = experiment: Test C flooded paddy test; format: in vivo, Heteranthera limosa; conditions: Flood
In short: as §3

wild oat = experiment: Test C pre-/postemergence test; format: in vivo, Avena fatua
In short: as §2

wheat = experiment: Test A pre-/postemergence greenhouse test; format: in vivo, Triticum aestivum; conditions: for Wheat plant response rating: 0 to 100 scale; for Plant response rating, Wheat: 0 to 100 scale where 0 is no effect and 100 is complete control
In short: as §1

johnsongrass = experiment: Test C pre-/postemergence test; format: in vivo, Sorghum halepense
In short: as §2

[5] = Postemergence, 125 g ai/ha, 0 is no effect, 100 is complete control
[6] = Postemergence, 500 g ai/ha, 0 is no effect, 100 is complete control
[7] = Preemergence, 125 g ai/ha, 0 no effect, 100 complete control
[8] = 31 g ai/ha, Preemergence, scale 0 to 100
[9] = 62 g ai/ha, preemergence, scale 0 (no effect) to 100 (complete control)
[10] = preemergence, 125 g ai/ha, scale 0 (no effect) to 100 (complete control)
[11] = 31 g ai/ha, scale 0 to 100 (0 no effect, 100 complete control)
[12] = 62 g ai/ha, scale 0 to 100, 0 no effect, 100 complete control, 13 to 15 days
[13] = 125 g ai/ha, scale 0 to 100, 0 no effect, 100 complete control, 13 to 15 days
[14] = 250 g ai/ha, scale 0 to 100 (0 no effect, 100 complete control)
[15] = Preemergence, 500 g ai/ha, 0 no effect, 100 complete control
[16] = 62 g ai/ha, Preemergence, scale 0 to 100
[17] = 125 g ai/ha, preemergence, scale 0 (no effect) to 100 (complete control)
[18] = Preemergence, 31 g ai/ha, scale 0 to 100 (0 no effect, 100 complete control)
[19] = preemergence, 250 g ai/ha, scale 0 (no effect) to 100 (complete control)
[20] = 62 g ai/ha, scale 0 to 100 (0 no effect, 100 complete control)
[21] = 250 g ai/ha, scale 0 to 100, 0 no effect, 100 complete control, 13 to 15 days

CC(c1c(C(F)(F)F)nn(C)c1Cl)S(=O)(=O)c1cccc[n+]1[O-] (centres unmarked) [Compound 10]
Foxtail, Giant plant response rating (giant foxtail [1]; [5]): 80
Foxtail, Giant plant response rating (giant foxtail [1]; [6]): 90
Foxtail, Giant plant response rating (giant foxtail [1]; [7]): 100
Plant response rating, Foxtail, Giant (giant foxtail [1]; Preemergence, 500 g ai/ha): 100
Goosegrass plant response rating (Goosegrass; [8]): 100
Goosegrass plant response rating (Goosegrass; [9]): 100
Plant response rating (0 to 100), Goosegrass (Goosegrass; Preemergence, 250 g ai/ha): 100
Goosegrass plant response rating (Goosegrass; [10]): 100
Velvetleaf plant response rating (velvetleaf [2]; [5]): 0
Velvetleaf plant response rating (velvetleaf [2]; [6]): 30
Velvetleaf plant response rating (velvetleaf [2]; [7]): 60
Plant response rating, Velvetleaf (velvetleaf [2]; Preemergence, 500 g ai/ha): 60
Ragweed plant response rating (common ragweed; [8]): 60
Ragweed plant response rating (common ragweed; [9]): 80
Plant response rating (0 to 100), Ragweed (common ragweed; Preemergence, 250 g ai/ha): 100
Ragweed plant response rating (common ragweed; [10]): 100
Foxtail, Giant plant response rating (giant foxtail [3]; [8]): 85
Foxtail, Giant plant response rating (giant foxtail [3]; [9]): 100
Plant response rating (0 to 100), Foxtail, Giant (giant foxtail [3]; Preemergence, 250 g ai/ha): 100
Foxtail, Giant plant response rating (giant foxtail [3]; [10]): 100
Velvetleaf plant response rating (velvetleaf [4]; [9]): 0
Plant response rating (0 to 100), Velvetleaf (velvetleaf [4]; Preemergence, 250 g ai/ha): 75
Velvetleaf plant response rating (velvetleaf [4]; [10]): 5
Nightshade plant response rating (eastern black nightshade; [8]): 90
Nightshade plant response rating (eastern black nightshade; [9]): 98
Plant response rating (0 to 100), Nightshade (eastern black nightshade; Preemergence, 250 g ai/ha): 100
Nightshade plant response rating (eastern black nightshade; [10]): 100
Plant response rating, Rice (rice; [11]): 0
Plant response rating, Rice (rice; [12]): 25
Plant response rating, Rice (rice; [13]): 70
Plant response rating, Rice (rice; [14]): 80
Corn plant response rating (corn; [5]): 40
Corn plant response rating (corn; [6]): 60
Corn plant response rating (corn; [7]): 0
Plant response rating, Corn (corn; Preemergence, 500 g ai/ha): 50
Lambsquarters plant response rating (lambsquarters; [8]): 0
Lambsquarters plant response rating (lambsquarters; [9]): 98
Plant response rating (0 to 100), Lambsquarters (lambsquarters; Preemergence, 250 g ai/ha): 100
Lambsquarters plant response rating (lambsquarters; [10]): 100
Plant response rating, Barnyardgrass (barnyardgrass; [11]): 0
Plant response rating, Barnyardgrass (barnyardgrass; [12]): 30
Plant response rating, Barnyardgrass (barnyardgrass; [13]): 75
Plant response rating, Barnyardgrass (barnyardgrass; [14]): 85
Bermudagrass plant response rating (bermudagrass; [8]): 95
Bermudagrass plant response rating (bermudagrass; [9]): 100
Plant response rating (0 to 100), Bermudagrass (bermudagrass; Preemergence, 250 g ai/ha): 100
Bermudagrass plant response rating (bermudagrass; [10]): 100
Surinam Grass plant response rating (Surinam grass; [9]): 98
Plant response rating (0 to 100), Surinam Grass (Surinam grass; Preemergence, 250 g ai/ha): 100
Surinam Grass plant response rating (Surinam grass; [10]): 100
Pigweed plant response rating (redroot pigweed; [5]): 30
Pigweed plant response rating (redroot pigweed; [6]): 60
Pigweed plant response rating (redroot pigweed; [7]): 100
Plant response rating, Pigweed (redroot pigweed; Preemergence, 500 g ai/ha): 100
Plant response rating, Ducksalad (duck salad; [11]): 30
Plant response rating, Ducksalad (duck salad; [12]): 80
Plant response rating, Ducksalad (duck salad; [13]): 85
Plant response rating, Ducksalad (duck salad; [14]): 90
Oat, Wild plant response rating (wild oat; [8]): 0
Oat, Wild plant response rating (wild oat; [9]): 0
Plant response rating (0 to 100), Oat, Wild (wild oat; Preemergence, 250 g ai/ha): 65
Oat, Wild plant response rating (wild oat; [10]): 60
Wheat plant response rating (wheat; [5]): 50
Wheat plant response rating (wheat; [6]): 70
Wheat plant response rating (wheat; [7]): 60
Plant response rating, Wheat (wheat; Preemergence, 500 g ai/ha): 80
Johnsongrass plant response rating (johnsongrass; [8]): 70
Johnsongrass plant response rating (johnsongrass; [9]): 100
Plant response rating (0 to 100), Johnsongrass (johnsongrass; Preemergence, 250 g ai/ha): 100
Johnsongrass plant response rating (johnsongrass; [10]): 100

Cc1cc[n+]([O-])c(S(=O)(=O)Cc2c(C(F)(F)C(F)(F)F)nn(C)c2OCC(F)(F)F)c1 [Compound 99]
Plant response rating, Foxtail, Giant (giant foxtail [1]; Postemergence, 125 g ai/ha): 70
Foxtail, Giant plant response rating (giant foxtail [1]; [6]): 80
Foxtail, Giant plant response rating (giant foxtail [1]; [7]): 90
Foxtail, Giant plant response rating (giant foxtail [1]; [15]): 100
Goosegrass plant response rating (Goosegrass; [16]): 95
Goosegrass plant response rating (Goosegrass; [17]): 100
Plant response rating, Goosegrass (Goosegrass; [18]): 85
Goosegrass plant response rating (Goosegrass; [19]): 100
Plant response rating, Velvetleaf (velvetleaf [2]; Postemergence, 125 g ai/ha): 30
Velvetleaf plant response rating (velvetleaf [2]; [6]): 60
Velvetleaf plant response rating (velvetleaf [2]; [7]): 20
Velvetleaf plant response rating (velvetleaf [2]; [15]): 100
Ragweed plant response rating (common ragweed; [16]): 100
Ragweed plant response rating (common ragweed; [17]): 100
Ragweed plant response rating (common ragweed; [19]): 100
Foxtail, Giant plant response rating (giant foxtail [3]; [16]): 85
Foxtail, Giant plant response rating (giant foxtail [3]; [17]): 100
Foxtail, Giant plant response rating (giant foxtail [3]; [19]): 100
Velvetleaf plant response rating (velvetleaf [4]; [16]): 80
Velvetleaf plant response rating (velvetleaf [4]; [17]): 100
Plant response rating, Velvetleaf (velvetleaf [4]; [18]): 0
Velvetleaf plant response rating (velvetleaf [4]; [19]): 100
Nightshade plant response rating (eastern black nightshade; [16]): 98
Nightshade plant response rating (eastern black nightshade; [17]): 100
Plant response rating, Nightshade (eastern black nightshade; [18]): 90
Nightshade plant response rating (eastern black nightshade; [19]): 100
Plant response rating, Rice (rice; [20]): 0
Plant response rating, Rice (rice; [21]): 45
Plant response rating, Corn (corn; Postemergence, 125 g ai/ha): 40
Corn plant response rating (corn; [6]): 60
Corn plant response rating (corn; [7]): 0
Corn plant response rating (corn; [15]): 30
Lambsquarters plant response rating (lambsquarters; [16]): 100
Lambsquarters plant response rating (lambsquarters; [17]): 100
Plant response rating, Lambsquarters (lambsquarters; [18]): 100
Lambsquarters plant response rating (lambsquarters; [19]): 100
Plant response rating, Barnyardgrass (barnyardgrass; [20]): 0
Plant response rating, Barnyardgrass (barnyardgrass; [21]): 20
Bermudagrass plant response rating (bermudagrass; 62 g ai/ha, Preemergence, scale 0 to 100 (0 no effect, 100 complete control)): 100
Bermudagrass plant response rating (bermudagrass; [17]): 100
Plant response rating, Bermudagrass (bermudagrass; [18]): 85
Bermudagrass plant response rating (bermudagrass; [19]): 100
Surinam Grass plant response rating (Surinam grass; [16]): 75
Surinam Grass plant response rating (Surinam grass; [17]): 95
Plant response rating, Surinam Grass (Surinam grass; [18]): 0
Surinam Grass plant response rating (Surinam grass; [19]): 95
Plant response rating, Pigweed (redroot pigweed; Postemergence, 125 g ai/ha): 10
Pigweed plant response rating (redroot pigweed; [6]): 60
Pigweed plant response rating (redroot pigweed; [7]): 100
Pigweed plant response rating (redroot pigweed; [15]): 100
Plant response rating, Ducksalad (duck salad; [20]): 0
Plant response rating, Ducksalad (duck salad; [21]): 65
Oat, Wild plant response rating (wild oat; [16]): 80
Oat, Wild plant response rating (wild oat; [17]): 95
Plant response rating, Oat, Wild (wild oat; [18]): 30
Oat, Wild plant response rating (wild oat; [19]): 95
Plant response rating, Wheat (wheat; Postemergence, 125 g ai/ha): 50
Wheat plant response rating (wheat; [6]): 70
Wheat plant response rating (wheat; [7]): 50
Wheat plant response rating (wheat; [15]): 90
Johnsongrass plant response rating (johnsongrass; [16]): 90
Johnsongrass plant response rating (johnsongrass; [17]): 100
Plant response rating, Johnsongrass (johnsongrass; [18]): 40
Johnsongrass plant response rating (johnsongrass; [19]): 100
